Results taken from patent US20170304280A1, “SYNERGISTIC COMBINATIONS STIMULATING THE EXPRESSION OF SIRTUIN 1” (priority 2014, published 2017).

Test system: SIRT 1
Experiment: Western blot analysis of the expression of SIRT 1 in HeLa cells
Type: cell-based, Human
Conditions: for % 3 h increase (SIRT 1 expression compared to control) / % 6 h increase (SIRT 1 expression compared to control) / % 24 h increase (SIRT 1 expression compared to control): HeLa cells; for increase of SIRT 1 expression relative to the other groups: Table 1, especially with respect to resveratrol, reference standard
Experimental: The synergistic effects of co-administration of two substances on SIRT 1 stimulation, determined as a greater, statistically significant effect than the sum of the effects of the two substances individually administered, were evaluated in cell cultures by repeating the experiment at least 8 times for each single combination, either after a stimulation time of 3, 6 and 24 hours (more than 300 total trials), as described in the following detailed description.
Human Cervical Carcinoma cells (HeLa) were cultured in DMEM supplemented with 10% (v/v) fetal bovine serum, 1% antibiotics (penicillin and streptomycin) and 1% L-glutamine at 37° C. in a humidified air atmosphere with 5% (v/v) CO2.
The cells were grown to a confluence of 80%, were then trypsinized, counted with a Burker chamber and plated (100,000 cells /well). The day of the experiment, the cells were treated with the substances at the different concentrations and left in incubation for 3, 6 and 24 hours. The substances were solubilized in DMSO, used at concentrations not toxic for cells (v/v<0.5%).
At the end of the incubation periods, the cells were washed with PBS (pH 7.4) and collected in a 1.5 ml microtube with 0.130 ml of lysis buffer (RIPA buffer) containing a protease inhibitor cocktail, a phosphatase inhibitor cocktail, PMSF, sodium orthovanadate and sodium pyrophosphate.
They were lysed by three freezing-thawing cycles and then the supernatant were recovered.
A part of the lysate was used to quantified the protein content with the spectrophotometer (Thermo Scientific Multiskan FC, Thermo Scientific), using a commercial kit based on the Bradford assay. The final concentrations are expressed in μg/μl.
The cell lysates (25 μg/μl) were combined with the appropriate amount of 1× SDS sample buffer (0.5 M Tris-HCl pH 6.8, 20% SDS, 10% [vol/vol] glycerol, 5% [vol/vol] β-mercaptoethanol, 0.2% bromophenol blue), heated at 95° C. for 5 min, separated by SDS-PAGE and then transferred to polyvinylidene difluoride membranes (PVDF).
For the electrophoretic separation was used a polyacrylamide gel, composed of two parts, a lower one called “Running gel”, containing acrylamide (acrylic acid amide) to 12% (acrylamide/bis-acrylamide 30%), in which occurs the separation of the proteins, and an upper one, called loading gel or “Stacking gel”, containing acrylamide to 10%, where were built the wells for sample loading.
The electrophoretic run was performed by passing a current at 200V for about 1 hour, or until when the front has not reached the bottom of the gel.
Once running, the proteins were transferred from the gel to a […] membrane (PVDF).
The transfer was performed by passing a voltage of 100V for 1 hour.
The membranes were blocked with 5% (wt/vol) nonfat dry milk in Tris-buffered saline with Tween buffer (T-TBS) (20 mmol/1 Tris-Hcl, pH 7.6, 0.138 mol/l NaCl, and 0.1% Tween 20) for 1 hour under stirring and at room temperature.
The expression of SIRT 1 was analyzed incubating the membranes in the presence of specific primary antibodies and, subsequently, of secondary peroxidase-conjugated antibodies, suitable diluted in 5% BSA in T-TBS. Primary Antibodies were used overnight at 4° C. at the following conditions: anti-SIRT 1, rabbit (1:1000) and anti-β-actine, mouse (1:1000). Secondary antibodies were instead used at this dilution: goat anti-rabbit (1:10000) for SIRT 1 and for β-actin.
During this phase the primary antibody binds to species-specific secondary antibody conjugated to a peroxidase enzyme that will bind, in the next step, a specific substrate (luminol) for the reaction of chemiluminescence.
Later, were performed a series of washes with TBS-Tween under stirring, in order to remove all the unbound secondary antibody.
Bound antibodies were visualized using Chemiluminescence Luminata Crescendo Western HRP Substrate and bands were detected and analyzed by the Kodak Image Station 440CF (Eastman Kodak, Rochester, N.Y., USA).

| Molecule | % 3 h increase (SIRT 1 expression compared to control) (10 μM) [%] | % 6 h increase (SIRT 1 expression compared to control) (10 μM) [%] | % 24 h increase (SIRT 1 expression compared to control) (10 μM) [%] | % 3 h increase (SIRT 1 expression compared to control) (20 μM) [%] | % 6 h increase (SIRT 1 expression compared to control) (20 μM) [%] | % 24 h increase (SIRT 1 expression compared to control) (20 μM) [%] | increase of SIRT 1 expression relative to the other groups | % 3 h increase (SIRT 1 expression compared to control) (5 μM) [%] | % 6 h increase (SIRT 1 expression compared to control) (5 μM) [%] | % 24 h increase (SIRT 1 expression compared to control) (5 μM) [%] | % 3 h increase (SIRT 1 expression compared to control) (25 μM) [%] | % 6 h increase (SIRT 1 expression compared to control) (25 μM) [%] | % 24 h increase (SIRT 1 expression compared to control) (25 μM) [%] | % 3 h increase (SIRT 1 expression compared to control) (50 μM) [%] | % 6 h increase (SIRT 1 expression compared to control) (50 μM) [%] | % 24 h increase (SIRT 1 expression compared to control) (50 μM) [%] |
| --- | --- | --- | --- | --- | --- | --- | --- | --- | --- | --- | --- | --- | --- | --- | --- | --- |
| OCCc1ccc(O)cc1 [Tyrosol] | 53 | 62 | 68 | 76 | 93 | 101 | greater increase than the other groups | – | – | – | – | – | – | – | – | – |
| (+)-Catechin | 54 | 54 | 57 | – | – | – | greater increase than the other groups | 44 | 44 | 46 | – | – | – | – | – | – |
| COc1ccc2cc3[n+](cc2c1OC)CCc1cc2c(cc1-3)OCO2 [Berberine, Berberine Chloride Hydrate] | 65 | 64 | 75 | – | – | – | greater increase than the other groups | 63 | 65 | 75 | – | – | – | – | – | – |
| O.O.O=c1c(O)c(-c2ccc(O)c(O)c2)oc2cc(O)cc(O)c12 [Quercetin, Quercetin Dihydrate] | 27 | 27 | 54 | – | – | – | – | 21 | 22 | 29 | – | – | – | – | – | – |
| COc1cc(/C=C/C(=O)O)ccc1O [Ferulic Acid] | – | – | – | – | – | – | greater increase than the other groups | – | – | – | 43 | 44 | 66 | 57 | 58 | 75 |
| Oc1ccc(C=Cc2cc(O)cc(O)c2)cc1 [Resveratrol, reference compound] | 47 | 48 | 69 | – | – | – | – | 46 | 47 | 68 | – | – | – | – | – | – |
